Source: ChEMBL document CHEMBL5696439 (Cancer Res, 2010)
The source made the active and inactive calls. The rule behind the calls is not given here.

What was measured:
[1] = biological target: Mitogen-activated protein kinase 1 (Homo sapiens) (UniProt P28482); test: Inhibition of recombinant human full length GST-tagged MAPK1 expressed in E.coli at 2 uM using Ser/Thr 03 as substrate measured after 1 hr by Z'-LYTE assay relative to control
[2] = biological target: Vascular endothelial growth factor receptor 3 (Homo sapiens) (UniProt P35916); test: Inhibition of recombinant human GST-tagged FLT4 (800-1297 residues) expressed in insect cells at 2 uM using Tyr 04 as substrate measured after 1 hr by Z'-LYTE assay relative to control; conditions: Insect cell
786-0 = test: Antitumor activity against VHL null-human 786-0 cells xenografted in female nude mouse model assessed as suppression in tumor growth at 25 mg/kg, po qd administered as 5 days on/2 days off regimen for 4 cycles relative to control; type: functional; conditions: time 28 day
[3] = biological target: Misshapen-like kinase 1 (Homo sapiens) (UniProt Q8N4C8); test: Inhibition of recombinant human GST-tagged MINK1 (1-320 residues) expressed in insect cells at 2 uM using Ser/Thr 07 as substrate measured after 1 hr by Z'-LYTE assay relative to control; conditions: Insect cell
MDA-MB-468 = test: Induction of apoptosis in human MDA-MB-468 cells assessed as reduction in S phase at 1 micromol/L incubated for 24 hrs by FACS analysis; type: functional, cell-based; conditions: dose 1.0 µmol/L
[4] = biological target: Insulin receptor-related protein (Homo sapiens) (UniProt P14616); test: Inhibition of recombinant human GST-tagged INSRR (944-1297 residues) expressed in insect cells at 2 uM using Tyr 04 as substrate measured after 1 hr by Z'-LYTE assay relative to control; conditions: Insect cell
[5] = biological target: Tyrosine-protein kinase Blk (Homo sapiens) (UniProt P51451); test: Inhibition of recombinant human full-length His-tagged BLK expressed in insect cells at 2 uM using Tyr 01 as substrate measured after 1 hr by Z'-LYTE assay relative to control; conditions: Insect cell
[6] = biological target: Protein kinase C alpha type (Homo sapiens) (UniProt P17252); test: Inhibition of recombinant human full length GST-tagged PRKCA expressed in baculovirus expression system at 2 uM using Ser/Thr 07 as substrate measured after 1 hr by Z'-LYTE assay relative to control
mTORC2 (Homo sapiens) = mTORC2 (Homo sapiens) (UniProt P42345+Q6R327+Q9BVC4+Q9BPZ7); conditions: PC3MM2, dose 0.1-1 µM, time 6.0 hrs
[7] = biological target: Casein kinase II subunit alpha' (Homo sapiens) (UniProt P19784); test: Inhibition of recombinant human full-length GST-tagged CSNK2A2 expressed in insect cells at 2 uM using Ser/Thr 11 as substrate measured after 1 hr by Z'-LYTE assay relative to control; conditions: Insect cell
[8] = biological target: Serine/threonine-protein kinase PAK 3 (Homo sapiens) (UniProt O75914); test: Inhibition of recombinant human full length His-tagged PAK3 expressed in insect cells at 2 uM using Ser/Thr 20 as substrate measured after 1 hr by Z'-LYTE assay relative to control; conditions: Insect cell
MDA-MB-361 [9] = test: Antitumor activity against human MDA-MB-361 cells assessed as reduction in oxygen consumption rate at 1 micromol/L incubated for 1 hrs relative to control; type: functional; design: scale not given: the % may be the effect or the level left; conditions: dose 1 µmol/L, at 1 µM
A498 = test: Antiproliferative activity against human A498 cells assessed as cell growth inhibition incubated for 24 hrs by MTS assay; type: functional, cell-based; conditions: A498, 24 h
[10] = biological target: Tyrosine-protein kinase Mer (Homo sapiens) (UniProt Q12866); test: Inhibition of recombinant human GST-tagged MERTK (578-872 residues) expressed in insect cells at 2 uM using Tyr 02 as substrate measured after 1 hr by Z'-LYTE assay relative to control; conditions: Insect cell
[11] = biological target: Testis-specific serine/threonine-protein kinase 1 (Homo sapiens) (UniProt Q9BXA7); test: Inhibition of recombinant human full length His-tagged STK22D expressed in insect cells at 2 uM using Ser/Thr 04 as substrate measured after 1 hr by Z'-LYTE assay relative to control; conditions: Insect cell
[12] = biological target: Tyrosine-protein kinase JAK2 (Homo sapiens) (UniProt O60674); test: Inhibition of recombinant human GST-tagged JAK2 JH1 JH2 domains (532-1132 residues) expressed in insect cells at 2 uM using Tyr 06 as substrate measured after 1 hr by Z'-LYTE assay relative to control; conditions: Insect cell
[13] = system: Receptor-type tyrosine-protein kinase FLT3 (Homo sapiens), P36888 [D835Y]; test: Inhibition of recombinant human His-tagged FLT3 D835Y mutant (564-958 residues) expressed in insect cells at 2 uM using Tyr 02 as substrate measured after 1 hr by Z'-LYTE assay relative to control; conditions: Insect cell
[14] = biological target: Protein kinase C iota type (Homo sapiens) (UniProt P41743); test: Inhibition of recombinant human full length His-tagged PRKCI expressed in baculovirus expression system at 2 uM using Ser/Thr 07 as substrate measured after 1 hr by Z'-LYTE assay relative to control
[15] = biological target: SRSF protein kinase 2 (Homo sapiens) (UniProt P78362); test: Inhibition of recombinant human full length GST-tagged SRPK2 expressed in insect cells at 2 uM using Ser/Thr 07 as substrate measured after 1 hr by Z'-LYTE assay relative to control; conditions: Insect cell
[16] = biological target: Angiopoietin-1 receptor (Homo sapiens) (UniProt Q02763); test: Inhibition of recombinant human GST-tagged TEK (817-1101 residues) expressed in insect cells at 2 uM using […] as substrate measured after 1 hr by Z'-LYTE assay relative to control; conditions: Insect cell
[17] = biological target: Tyrosine-protein kinase SYK (Homo sapiens) (UniProt P43405); test: Inhibition of recombinant human full length GST-tagged SYK expressed in baculovirus expression system at 2 uM using […] as substrate measured after 1 hr by Z'-LYTE assay relative to control
MDA-MB-361 [18] = test: Antitumor activity against human MDA-MB-361 cells assessed as block the accumulation of HIF-1alpha in low oxygen at 0.3 micromol/L incubated for 24 hrs by immunoblot analysis; type: functional, cell-based; conditions: dose 0.3 µmol/L
[19] = biological target: G protein-coupled receptor kinase 4 (Homo sapiens) (UniProt P32298); test: Inhibition of recombinant human full-length GST-tagged GRK4 expressed in insect cells at 2 uM using Ser/Thr 16 as substrate measured after 1 hr by Z'-LYTE assay relative to control; conditions: Insect cell
[20] = biological target: Dual specificity mitogen-activated protein kinase kinase 1 (Homo sapiens) (UniProt Q02750); test: Inhibition of recombinant human full length His-tagged MAP2K1 expressed in baculovirus expression system at 2 uM using Ser/Thr 03 as substrate measured after 1 hr by Z'-LYTE assay relative to control
[21] = biological target: Serine/threonine-protein kinase mTOR (Homo sapiens, UniProt P42345); test: Inhibition of human full-length Flag-tagged mTOR expressed in HEK293 cells using His6-S6K as substrate measured after 2 hrs in presence of ATP by DELFIA
HCT-116 = test: Induction of apoptosis in human HCT-116 cells assessed as reduction in S phase at 1 micromol/L incubated for 24 hrs by FACS analysis; type: functional, cell-based; conditions: dose 1.0 µmol/L

Sequence of Mitogen-activated protein kinase 1 (Homo sapiens) (P28482 whole entry, the tested form may be a part): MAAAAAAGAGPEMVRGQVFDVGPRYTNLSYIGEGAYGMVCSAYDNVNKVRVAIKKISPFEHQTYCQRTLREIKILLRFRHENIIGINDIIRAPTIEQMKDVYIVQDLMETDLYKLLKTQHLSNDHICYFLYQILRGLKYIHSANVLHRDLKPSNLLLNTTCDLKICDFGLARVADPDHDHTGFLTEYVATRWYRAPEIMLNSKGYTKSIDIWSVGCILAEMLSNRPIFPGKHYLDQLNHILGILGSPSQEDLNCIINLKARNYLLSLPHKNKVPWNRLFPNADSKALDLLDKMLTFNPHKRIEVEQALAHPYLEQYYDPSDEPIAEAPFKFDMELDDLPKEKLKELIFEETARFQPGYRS
Sequence of SRSF protein kinase 2 (Homo sapiens) (P78362 whole entry, looked up, the tested form may be a part): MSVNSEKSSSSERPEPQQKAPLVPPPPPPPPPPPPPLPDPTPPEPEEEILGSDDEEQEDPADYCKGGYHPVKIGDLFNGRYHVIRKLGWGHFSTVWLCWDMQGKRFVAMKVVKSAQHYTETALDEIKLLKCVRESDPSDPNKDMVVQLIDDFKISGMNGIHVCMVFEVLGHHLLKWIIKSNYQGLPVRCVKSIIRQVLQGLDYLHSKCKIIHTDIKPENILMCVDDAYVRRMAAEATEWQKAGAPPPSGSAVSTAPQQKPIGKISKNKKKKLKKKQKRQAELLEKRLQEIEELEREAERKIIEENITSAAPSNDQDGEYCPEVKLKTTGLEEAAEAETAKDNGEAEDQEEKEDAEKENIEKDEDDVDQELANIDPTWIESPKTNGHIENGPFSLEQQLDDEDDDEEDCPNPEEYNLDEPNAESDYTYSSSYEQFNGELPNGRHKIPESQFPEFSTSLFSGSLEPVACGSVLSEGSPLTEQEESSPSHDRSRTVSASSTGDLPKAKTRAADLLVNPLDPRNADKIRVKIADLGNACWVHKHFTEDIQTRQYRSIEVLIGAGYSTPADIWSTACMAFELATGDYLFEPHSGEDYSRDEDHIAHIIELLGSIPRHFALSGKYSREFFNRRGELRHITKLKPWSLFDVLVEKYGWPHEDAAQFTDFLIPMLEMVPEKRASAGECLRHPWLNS
Sequence of Testis-specific serine/threonine-protein kinase 1 (Homo sapiens) (Q9BXA7 whole entry, the tested form may be a part): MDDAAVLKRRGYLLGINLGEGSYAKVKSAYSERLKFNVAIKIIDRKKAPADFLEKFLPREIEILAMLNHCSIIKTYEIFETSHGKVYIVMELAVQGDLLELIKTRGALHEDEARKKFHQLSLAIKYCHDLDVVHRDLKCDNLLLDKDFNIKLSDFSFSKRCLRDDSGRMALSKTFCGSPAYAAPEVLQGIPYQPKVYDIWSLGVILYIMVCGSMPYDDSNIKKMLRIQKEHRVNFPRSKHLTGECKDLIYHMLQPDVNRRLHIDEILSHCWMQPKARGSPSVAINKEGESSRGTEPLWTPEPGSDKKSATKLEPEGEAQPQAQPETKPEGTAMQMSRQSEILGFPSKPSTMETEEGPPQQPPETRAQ
Sequence of Tyrosine-protein kinase Mer (Homo sapiens) (Q12866 whole entry, the tested form may be a part): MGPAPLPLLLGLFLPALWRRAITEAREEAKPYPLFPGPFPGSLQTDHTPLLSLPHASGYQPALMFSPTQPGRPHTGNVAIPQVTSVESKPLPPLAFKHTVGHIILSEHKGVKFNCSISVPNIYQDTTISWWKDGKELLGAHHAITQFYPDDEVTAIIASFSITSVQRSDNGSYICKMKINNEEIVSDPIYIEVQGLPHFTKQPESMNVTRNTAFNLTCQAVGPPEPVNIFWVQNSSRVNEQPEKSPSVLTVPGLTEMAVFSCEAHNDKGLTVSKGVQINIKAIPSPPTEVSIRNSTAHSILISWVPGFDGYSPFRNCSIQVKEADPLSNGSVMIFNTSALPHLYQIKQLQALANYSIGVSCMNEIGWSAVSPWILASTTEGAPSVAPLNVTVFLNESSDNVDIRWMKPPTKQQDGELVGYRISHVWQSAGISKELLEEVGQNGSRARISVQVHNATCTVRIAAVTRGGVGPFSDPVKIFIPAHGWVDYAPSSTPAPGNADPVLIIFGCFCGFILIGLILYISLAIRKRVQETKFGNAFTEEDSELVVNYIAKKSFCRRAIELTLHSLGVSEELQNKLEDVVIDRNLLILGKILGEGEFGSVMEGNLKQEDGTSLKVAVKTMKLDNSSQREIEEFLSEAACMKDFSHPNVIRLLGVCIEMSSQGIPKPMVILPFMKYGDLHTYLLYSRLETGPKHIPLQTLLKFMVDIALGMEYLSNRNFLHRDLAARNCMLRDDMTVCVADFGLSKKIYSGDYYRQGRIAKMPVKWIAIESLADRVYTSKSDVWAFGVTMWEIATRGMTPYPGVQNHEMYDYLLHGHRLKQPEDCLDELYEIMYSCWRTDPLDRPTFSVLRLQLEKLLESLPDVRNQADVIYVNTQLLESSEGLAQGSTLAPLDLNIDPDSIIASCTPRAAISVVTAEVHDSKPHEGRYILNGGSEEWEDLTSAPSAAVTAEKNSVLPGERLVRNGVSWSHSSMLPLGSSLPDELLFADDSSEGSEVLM
Sequence of Protein kinase C iota type (Homo sapiens) (P41743 whole entry): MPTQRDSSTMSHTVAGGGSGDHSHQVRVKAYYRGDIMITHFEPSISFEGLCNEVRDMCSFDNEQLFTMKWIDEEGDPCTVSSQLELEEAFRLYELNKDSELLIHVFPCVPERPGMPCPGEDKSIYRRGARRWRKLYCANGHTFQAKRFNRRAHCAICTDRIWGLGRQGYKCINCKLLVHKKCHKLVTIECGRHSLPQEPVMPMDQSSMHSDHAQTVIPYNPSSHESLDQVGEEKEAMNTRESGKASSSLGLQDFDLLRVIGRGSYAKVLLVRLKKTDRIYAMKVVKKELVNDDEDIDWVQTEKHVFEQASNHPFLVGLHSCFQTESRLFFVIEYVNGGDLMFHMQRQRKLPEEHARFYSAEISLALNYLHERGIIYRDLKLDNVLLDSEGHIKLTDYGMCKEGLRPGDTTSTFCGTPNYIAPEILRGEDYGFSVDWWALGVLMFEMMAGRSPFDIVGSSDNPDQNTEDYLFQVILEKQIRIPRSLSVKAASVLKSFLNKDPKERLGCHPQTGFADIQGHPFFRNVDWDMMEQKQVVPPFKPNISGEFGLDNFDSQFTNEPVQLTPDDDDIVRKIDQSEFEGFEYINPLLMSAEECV
Sequence of Dual specificity mitogen-activated protein kinase kinase 1 (Homo sapiens) (Q02750 whole entry): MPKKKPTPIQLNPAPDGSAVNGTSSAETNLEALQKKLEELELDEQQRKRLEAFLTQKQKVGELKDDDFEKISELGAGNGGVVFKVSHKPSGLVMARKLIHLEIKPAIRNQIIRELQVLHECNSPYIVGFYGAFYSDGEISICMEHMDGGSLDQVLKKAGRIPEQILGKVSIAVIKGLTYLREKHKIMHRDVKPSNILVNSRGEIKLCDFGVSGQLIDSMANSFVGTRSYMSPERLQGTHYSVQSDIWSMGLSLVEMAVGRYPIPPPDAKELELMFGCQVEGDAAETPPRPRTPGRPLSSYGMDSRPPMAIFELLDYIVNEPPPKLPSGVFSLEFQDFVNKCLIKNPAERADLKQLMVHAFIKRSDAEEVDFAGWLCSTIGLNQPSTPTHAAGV
Sequence of Serine/threonine-protein kinase PAK 3 (Homo sapiens) (O75914 whole entry, looked up): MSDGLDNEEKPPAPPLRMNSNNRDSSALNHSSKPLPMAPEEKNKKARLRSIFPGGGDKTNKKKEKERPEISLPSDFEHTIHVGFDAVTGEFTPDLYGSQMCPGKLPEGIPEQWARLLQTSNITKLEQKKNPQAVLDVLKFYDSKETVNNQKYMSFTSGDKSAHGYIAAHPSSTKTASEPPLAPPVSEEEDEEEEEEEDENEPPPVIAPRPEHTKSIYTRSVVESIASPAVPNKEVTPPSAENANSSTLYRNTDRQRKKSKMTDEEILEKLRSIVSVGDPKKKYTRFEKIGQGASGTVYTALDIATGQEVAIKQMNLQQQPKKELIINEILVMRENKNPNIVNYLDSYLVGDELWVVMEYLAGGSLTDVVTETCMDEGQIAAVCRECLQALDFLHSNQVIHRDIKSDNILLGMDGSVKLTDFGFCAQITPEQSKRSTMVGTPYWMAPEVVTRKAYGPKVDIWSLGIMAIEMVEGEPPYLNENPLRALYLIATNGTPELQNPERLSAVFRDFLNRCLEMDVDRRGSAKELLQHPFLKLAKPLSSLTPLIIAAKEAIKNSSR
Sequence of Casein kinase II subunit alpha' (Homo sapiens) (P19784 whole entry, looked up): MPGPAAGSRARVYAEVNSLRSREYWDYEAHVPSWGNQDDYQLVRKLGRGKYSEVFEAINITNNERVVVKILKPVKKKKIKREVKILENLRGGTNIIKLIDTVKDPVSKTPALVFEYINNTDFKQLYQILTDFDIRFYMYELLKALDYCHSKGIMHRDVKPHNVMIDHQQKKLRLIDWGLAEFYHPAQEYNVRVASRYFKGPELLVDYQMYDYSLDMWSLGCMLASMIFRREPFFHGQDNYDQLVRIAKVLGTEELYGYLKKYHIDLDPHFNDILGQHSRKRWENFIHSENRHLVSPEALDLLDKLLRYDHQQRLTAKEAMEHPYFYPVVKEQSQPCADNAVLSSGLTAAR

For `CNC(=O)Nc1ccc(-c2nc(N3CC4CCC(C3)O4)c3cnn(C4CCC5(CC4)OCCO5)c3n2)cc1`, the inhibition [1] was 0%, the inhibition [2] was 4% and the Activity (786-0) was 100%. For the same compound, the inhibition [3] was 14%, the Activity (MDA-MB-468) was “Active” and the inhibition [4] was 6%. For the same compound, the inhibition [5] was 1%, the inhibition [6] was 10% and the inhibition (mTORC2 (Homo sapiens)) was “inactive”. The inhibition [7] was 3%, the inhibition [8] was 1% and the Activity (MDA-MB-361 [9]) was 35%. It also gave an IC50 (A498) of 110 nM, an inhibition [10] of 1% and an inhibition [11] of 3%. The inhibition [12] was 2%, the inhibition [13] was 7% and the inhibition [14] was 6%. The inhibition [15] was 1%, the inhibition [16] was 10% and the inhibition [17] was 1%. For the same compound, the Activity (MDA-MB-361 [18]) was “Active”, the inhibition [19] was -4% and the inhibition [20] was 3%. For the same compound, the IC50 [21] was 0.19 nM and the Activity (HCT-116) was “Active”.
